Test results reported in article PMC11200944, “Hybrid Caffeic Acid-Based DHFR Inhibitors as Novel Antimicrobial and Anticancer Agents” (Antibiotics, 2024).
Values after ≈ are worked out from the molar mass of the structure shown. Where two headings read alike, the source gives them in different places.

What was measured:
DHFR = target: T1, DHFR (Homo sapiens, UniProt P00374); assay: In vitro DHFR inhibition assay (DHFR assay kit CS0340, spectrophotometric, 340 nm); format: biochemical
T1 construct: purchased Sigma-Aldrich CS0340
T1 sequence (P00374 1-187): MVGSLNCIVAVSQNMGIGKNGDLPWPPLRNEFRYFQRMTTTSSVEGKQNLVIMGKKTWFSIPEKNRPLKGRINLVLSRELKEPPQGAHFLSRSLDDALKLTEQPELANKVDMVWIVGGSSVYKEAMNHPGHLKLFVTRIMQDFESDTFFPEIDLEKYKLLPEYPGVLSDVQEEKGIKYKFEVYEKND
Experimental: This assessment was carried out using the DHFR assay kit (catalog number CS0340, Sigma-Aldrich, Burlington, MA, USA) by using a spectrophotometric method. The enzymatic […] of dihydrofolic acid to tetrahydrofolic acid was monitored at 340 nm for 180 s, following the procedure recommended by the manufacturer of the assay kit. […] To evaluate the ability of the synthesized derivatives to block DHFR activity, a spectrophotometric assay technique was utilized at 340 nm for 180 seconds to detect the enzyme-catalyzed conversion of dihydrofolic acid to tetrahydrofolic acid. The DHFR assay kit (Sigma-Aldrich, catalog number CS0340) was used in this assay. The kit was tested using recombinant DHFR, NIH 3T3, A431, and CHO cell lines, as well as rat kidney, brain, liver, and muscle tissue extracts. Dihydrofolic acid, NADPH, standard drug solution, assay buffer, and DHFR stock solutions were prepared according to the instructions given in the technical bulletin that came along with the test kit. Except for the assay buffer, all stock solutions were stored on ice.
Each well of a 96-well clear microplate was filled with a calculated amount of assay buffer (190 μL), followed by 6 μL of diluted DHFR, which was thoroughly mixed. […] The microplate was then covered with parafilm, and the contents were mixed by inversion. Following the addition of 1 μL of substrate dihydrofolic acid, the absorbance was measured at 340 nm over a period of 180 s using an ELISA reader (Gen BioTek Microplate Reader, Winooski, VT, USA) in kinetic mode at room temperature. Plotting the relationship between absorbance and time generates the slope for each test inhibitor sample. The relative inhibition percentages were calculated using Equation (1). % relative inhibition = (slope of [EC] − slope of [S]/slope of [EC]) × 100(1) where S is the sample of interest, EC (enzyme control).

[1] = tested on: MCF-7 breast cancer cell line; assay: Anticancer activity (MTT assay); format: cell-based; details: Homo sapiens
Experimental: The anticancer potential of synthesized derivatives was assessed by targeting the MCF-7 breast cancer cell line.
The potential newly synthesized derivatives were evaluated for their cytotoxic activity on the MCF-7 cell line (sourced from NCCS in Pune, India) using the MTT (3-[4,5-dimethylthiazol-2-yl]-2,5-diphenyl tetrazolium bromide) assay. To perform the assay, 10,000 cells were placed in each well of 96-well plates and left to incubate for 24 h in Dulbecco’s Modified Eagle Medium (DMEM). The medium was supplemented with 1% antibiotic solution and 10% FBS (fetal bovine serum), and the incubation occurred at a temperature of 37 °C in an environment containing 5% CO2. […] The cultures were then subjected to additional 2 h incubation. Upon concluding the experiment, the culture supernatant was extracted, and the cellular matrix was dissolved in 100 µL of DMSO. The absorbance of the resulting solution underwent evaluation using an ELISA plate reader (iMark, Biorad, Hercules, CA, USA) at 540 nm. Triplicate measurements were performed to enhance the reliability and reproducibility of the results obtained.

[2] = tested on: S. aureus (ATCC FDA209-P); assay: Antibacterial MIC, broth microdilution; format: cell-based, Staphylococcus aureus; details: read-out: MIC (µM) S. aureus
Experimental: (§1) The serial dilution technique was utilized to evaluate the antimicrobial activity of synthesized derivatives against Gram-negative, Gram-positive, and fungal strains. […] To dissolve the reference and sample derivatives, DMSO was employed as a solvent. The synthesized compounds were evaluated for their antibacterial effectiveness against E. coli, P. aeruginosa, and S. aureus, and their antifungal potential was tested against Candida albicans and Aspergillus niger.
(§2) The antibacterial and antifungal activity of potential synthesized compounds was evaluated using the broth microdilution method to determine their minimum inhibitory concentration (MIC). […] Individual MIC (µM) values were determined using serial dilution technique with Mueller–Hinton Broth (MHB) media for bacterial growth and Roswell Park Memorial Institute (RPMI) media for fungal growth. […] The turbidity of the spore suspension was corrected to 0.5 McFarland by adding distilled water. Stock solutions of synthesized compounds were prepared in DMSO solvent and serially diluted to determine the MIC value. Each spore (0.1 mL) was put into each well holding the finally serially diluted synthesized compound concentration, standards, and controls. […] Agar plate spotting was carried out for each spore and incubated for 24 h at 37 ± 1 °C (for bacteria spores), 48 h at 37 ± 1 °C (for C. albicans), and 7 days at 25 ± 1 °C (for A. niger) to determine CFU. To assess reproducibility, duplicate tests were performed on three separate days.

[3] = tested on: P. aeruginosa (ATCC 27853); assay: Antibacterial MIC, broth microdilution; format: cell-based, Pseudomonas aeruginosa; details: read-out: MIC (µM) P. aeruginosa
Experimental: as §1, §2

E. coli (ATCC 25922) = assay: Antibacterial MIC, broth microdilution; format: cell-based, Escherichia coli; details: read-out: MIC (µM) E. coli
Experimental: as §1, §2

[4] = tested on: C. albicans (ATCC SC5314); assay: Antifungal MIC, broth microdilution; format: cell-based, Candida albicans; details: for MIC: read-out: MIC (µM) C. albicans
Experimental: as §1, §2

A. niger (MTCC 1688) = assay: Antifungal MIC, broth microdilution; format: cell-based, Aspergillus niger; details: for MIC: read-out: MIC (µM) A. niger
Experimental: as §1, §2

[5] = MCF7, read-out: Anticancer IC50 (µM), n = 3, MCF-7, MTT, 24 h
[6] = Staphylococcus aureus, FDA209, MHB, 37 °C, 24 h
[7] = Pseudomonas aeruginosa, ATCC27853, MHB, 37 °C, 24 h
[8] = Escherichia coli, ATCC25922, MHB, 37 °C, 24 h
[9] = MCF7, 24 h, read-out: Anticancer IC50 (µM), n = 3
[10] = Candida albicans, SC5314, RPMI, 37 °C, 48 h
[11] = Aspergillus niger, MTCC1688, 168 h, RPMI, 25 °C, 7 days
[12] = read-out: DHFR Inhibition IC50 (µM) ± SD, n = 3, 180 s

| Compound | MIC [2, 6] | MIC [3, 7] | MIC (E. coli (ATCC 25922); [8]) | MIC [4, 10] | MIC (A. niger (MTCC 1688); [11]) | also measured |
| --- | --- | --- | --- | --- | --- | --- |
| Oc1ccc(/C=C/c2nnc(S)n2/N=C/c2cc3ccccc3cc2O)cc1O [CTh7, 4-(2-(4-(4-naphthalen-2-ol)-5-mercapto-4H-1,2,4-triazol-3-yl)vinyl)benzene-1,2-diol] | 19 µM (≈ 7.68 µg/mL) | 19 µM (≈ 7.68 µg/mL) | 39 µM (≈ 15.8 µg/mL) |  |  | IC50 (DHFR; 180 s): 0.15 ± 0.02 µM; IC50 [1, 5]: 8.53 ± 0.19 µM; MIC (µM) C. albicans ([4]; RPMI, 37 °C, 48 h): -; MIC (µM) A. niger (A. niger (MTCC 1688); RPMI, 25 °C, 7 days): - |
| CC1(C)S[C@@H]2[C@H](NC(=O)[C@H](N)c3ccccc3)C(=O)N2[C@H]1C(=O)O [Ampicillin, reference compound] | 11 µM (≈ 3.84 µg/mL) | 22 µM (≈ 7.69 µg/mL) | 11 µM (≈ 3.84 µg/mL) |  |  |  |
| Oc1ccc(C=Nn2c(S)nnc2C=Cc2ccc(O)c(O)c2)cc1 [CTh4, 4-(2-(4-(4-hydroxylbenzylideneamino)-5-mercapto-4H-1,2,4-triazol-3-yl)vinyl)benzene-1,2-diol] | 22 µM (≈ 7.8 µg/mL) | 5 µM (≈ 1.77 µg/mL) | 5 µM (≈ 1.77 µg/mL) | 11 µM (≈ 3.9 µg/mL) |  | IC50 [1, 9]: 122 ± 7.3 µM; MIC (µM) A. niger (A. niger (MTCC 1688); RPMI, 25 °C, 7 days): - |
| OC(Cn1cncn1)(Cn1cncn1)c1ccc(F)cc1F [Fluconazole, reference compound] |  |  |  | 0.81 µM (≈ 0.248 µg/mL) | 260 µM (≈ 79.7 µg/mL) |  |
| COc1ccc(C=Nn2c(S)nnc2C=Cc2ccc(O)c(O)c2)cc1 [CTh1, 4-(2-(4-(4-methoxybenzylideneamino)-5-mercapto-4H-1,2,4-triazol-3-yl)vinyl)benzene-1,2-diol] | 43 µM (≈ 15.8 µg/mL) | 86 µM (≈ 31.7 µg/mL) | 86 µM (≈ 31.7 µg/mL) | 173 µM (≈ 63.7 µg/mL) |  | IC50 (DHFR; 180 s): 17 ± 1.1 µM; IC50 [1, 5]: 148 ± 11.4 µM; MIC (µM) A. niger (A. niger (MTCC 1688); RPMI, 25 °C, 7 days): - |
| Nn1c(S)nnc1C=Cc1ccc(O)c(O)c1 [CTh] |  |  |  |  |  | IC50 (DHFR; [12]): 16.9 ± 1.2 µM; MIC ([2]; MHB, 37 °C, 24 h): 63 µM (≈ 15.8 µg/mL); MIC ([3]; MHB, 37 °C, 24 h): 127 µM (≈ 31.8 µg/mL); MIC (E. coli (ATCC 25922); MHB, 37 °C, 24 h): 255 µM (≈ 63.8 µg/mL); MIC (µM) C. albicans ([4]; RPMI, 37 °C, 48 h): -; MIC (A. niger (MTCC 1688); RPMI, 25 °C, 7 days): 127 µM (≈ 31.8 µg/mL) |
| COc1cccc2c1C(=O)c1c(O)c3c(c(O)c1C2=O)C[C@@](O)(C(=O)CO)C[C@@H]3O[C@H]1C[C@H](N)[C@H](O)[C@H](C)O1 [doxorubicin, reference compound] |  |  |  |  |  | IC50 [1, 5]: 3.62 µM |
| CN(C)[C@@H]1C(O)=C(C(N)=O)C(=O)[C@@]2(O)C(O)=C3C(=O)c4c(O)cccc4[C@@](C)(O)[C@H]3C[C@@H]12 [Tetracycline, reference compound] | 144 µM (≈ 64 µg/mL) | 36 µM (≈ 16 µg/mL) | 36 µM (≈ 16 µg/mL) |  |  |  |
| COc1cc(Cc2cnc(N)nc2N)cc(OC)c1OC [Trimethoprim, reference compound] | 63 µM (≈ 18.3 µg/mL) | 31 µM (≈ 9 µg/mL) | 31 µM (≈ 9 µg/mL) | 255 µM (≈ 74 µg/mL) | 127 µM (≈ 36.9 µg/mL) |  |
| C[C@@H](c1ncncc1F)[C@](O)(Cn1cncn1)c1ccc(F)cc1F [Voriconazole, reference compound] |  |  |  | 0.34 µM (≈ 0.119 µg/mL) | 5 µM (≈ 1.75 µg/mL) |  |
| O=[N+]([O-])c1cccc(C=Nn2c(S)nnc2C=Cc2ccc(O)c(O)c2)c1 [CTh3, 4-(2-(4-(3-nitrobenzylideneamino)-5-mercapto-4H-1,2,4-triazol-3-yl)vinyl)benzene-1,2-diol] | 5 µM (≈ 1.92 µg/mL) | 10 µM (≈ 3.83 µg/mL) | 10 µM (≈ 3.83 µg/mL) | 20 µM (≈ 7.67 µg/mL) | 83 µM (≈ 31.8 µg/mL) |  |
| O=[N+]([O-])c1ccccc1C=Nn1c(S)nnc1C=Cc1ccc(O)c(O)c1 [CTh6, 4-(2-(4-(2-nitrobenzylideneamino)-5-mercapto-4H-1,2,4-triazol-3-yl)vinyl)benzene-1,2-diol] |  |  |  |  |  | IC50 (DHFR; 180 s): 10.5 ± 0.7 µM; IC50 [1, 9]: 89.2 ± 4.17 µM; MIC ([2]; Staphylococcus aureus, FDA209, 24 h): 10 µM (≈ 3.83 µg/mL); MIC ([3]; Pseudomonas aeruginosa, ATCC27853, 24 h): 10 µM (≈ 3.83 µg/mL); MIC (E. coli (ATCC 25922); Escherichia coli, ATCC25922, 24 h): 20 µM (≈ 7.67 µg/mL); MIC ([4]; Candida albicans, SC5314, 48 h): 41 µM (≈ 15.7 µg/mL); MIC (A. niger (MTCC 1688); Aspergillus niger, MTCC1688, 168 h): 83 µM (≈ 31.8 µg/mL) |
| 4-(2-(4-((2,4-dichlorocyclohexa-1,5-dienyl)methyleneamino)-5-mercapto-4H-1,2,4-triazol-3-yl)vinyl)benzene-1,2-diol [CTh10] |  |  |  |  |  | IC50 (DHFR; [12]): 11.3 ± 0.92 µM; MIC ([2]; MHB, 37 °C, 24 h): 19 µM; MIC ([3]; MHB, 37 °C, 24 h): 39 µM; MIC (E. coli (ATCC 25922); MHB, 37 °C, 24 h): 39 µM; MIC ([4]; RPMI, 37 °C, 48 h): 39 µM; MIC (A. niger (MTCC 1688); RPMI, 25 °C, 7 days): 39 µM |
